Tests used:
[1] = system: histamine-induced pruritus; test: Scratch test, histamine-induced pruritus, cream applied; format: in vivo, mice; conditions: histamine 500 μg intradermal
Excerpt: (§1) 7-week-old male C57/BL6 mice were used in the present experiment, and in order to produce atopic dermatitis models, 7-week-old male balb/c nude mice were purchased from Orient Bio (Korea) and used. The method described in the manuscript of Kuraishi et al., presented the original form of mouse models developed in the present invention (Kuraishi et al., 1995). The group consisting of male BL6/C57 mice weighing 20 g to 23 g was used in the experiment. The experiment proceeded after experimental animals were accustomed to the conventional environment of 23±2° C. and 55±15% humidity for 3 days, in which light was constrained from 8 pm to 8 am, and were given ad libitum access to food and water. In order to confirm reactions to pruritus-inducing substances such as histamine or serotonin in the present invention, a behavior experiment was conducted. In order to induce scratching, histamine and serotonin which are known to induce itchy sensation in humans were used. Here, histamine or serotonin was diluted with sterilized saline solution. […] Next, reactions of experimental animals were video-recorded for 30 minutes, and a scratch test was conducted by counting up and down of a hind paw of an experimental animal to the injected area in the back of the neck as one scratch. […]

[2] = cited from earlier work
[3] = system: histamine-induced pruritus; test: Scratch test, histamine-induced pruritus, simultaneous intradermal injection of compound; format: in vivo, mice; conditions: 10 μM compound injected simultaneously with 500 μg/site histamine, 30 minutes, histamine only about 152, FIG. 11
Description: In order to confirm reactions to pruritus-inducing substances such as histamine or serotonin in the present invention, a behavior experiment was conducted. In order to induce scratching, histamine and serotonin which are known to induce itchy sensation in humans were used. Here, histamine or serotonin was diluted with sterilized saline solution. On the day before the experiment, experimental animals were anaesthetized by mixing zolitel and rompun at a ratio of 1:4 and injecting 1 mL/kg thereof, and hair on the nape areas of a 1.5 cm×1.5 cm square was removed using a clipper on the nape of experimental animals. On the day of the experiment, a box of 10 cm×20 cm×15 cm dimensions was produced and mice were stabilized for 30 minutes therein. Thereafter, 100 μL of solvents or the experimental substance was applied on the back of the neck of mice, and after 30 minutes, 50 μL of pruritus-inducing substances (500 μg/site of histamine or 10 μg/site of serotonin) was injected at the back of the neck of experimental animals via intradermal injection. Next, reactions of experimental animals were video-recorded for 30 minutes, and a scratch test was conducted by counting up and down of a hind paw of an experimental animal to the injected area in the back of the neck as one scratch. […]
As described in Experimental Example 4, in order to induce scratching, experimental animals in the control group were injected with 500 μg/site of histamine at the back of the neck via intradermal injection, and along with the histamine, the experimental group was simultaneously injected with 10 μM isoeugenol (mixture of cis and trans, 82 ng) and 10 μM methyleugenol (89 ng) as representative eugenol derivatives, as well as 10 μM eugenol (82 ng). Thereafter, the reactions of experimental animals were video-recorded for 30 minutes, and a scratch test was conducted by counting the action of going up and down of a hind paw of an experimental animal to the injected area in the back of the neck as one scratch.

[4] = system: atopic dermatitis animal models (oxalozone-induced); test: Visual inspection of dermal recovery in atopic dermatitis animal models; format: in vivo, balb/c nude mice; conditions: 200 μL of 3 wt % eugenol cream, same time of a day for a week, FIG. 2
Excerpt: 7-week-old male C57/BL6 mice were used in the present experiment, and in order to produce atopic dermatitis models, 7-week-old male balb/c nude mice were purchased from Orient Bio (Korea) and used. The method described in the manuscript of Kuraishi et al., presented the original form of mouse models developed in the present invention (Kuraishi et al., 1995). The group consisting of male BL6/C57 mice weighing 20 g to 23 g was used in the experiment. The experiment proceeded after experimental animals were accustomed to the conventional environment of 23±2° C. and 55±15% humidity for 3 days, in which light was constrained from 8 pm to 8 am, and were given ad libitum access to food and water. Atopic dermatitis animal models were produced with reference to Hatano et al. (2011), and it is known that TRPV1 is mediated in the developmental mechanism. Particularly, balb/c nude mice were used to produce the atopic dermatitis animal models. In the first two days, 50 μL of 5% oxalozone was treated to sensitize the back of the neck of experimental animals, and a week of recovery followed. In the next 4 weeks, 60 μL of 0.5% oxalozone was treated for a total of 12 times to complete atopic dermatitis animal models (FIG. 1). […]

[5] = biological target: TRPV1 (Homo sapiens, UniProt Q8NER1); conditions: high concentration; cited from earlier work
TRPV1, sequence (Q8NER1 whole entry, species assumed): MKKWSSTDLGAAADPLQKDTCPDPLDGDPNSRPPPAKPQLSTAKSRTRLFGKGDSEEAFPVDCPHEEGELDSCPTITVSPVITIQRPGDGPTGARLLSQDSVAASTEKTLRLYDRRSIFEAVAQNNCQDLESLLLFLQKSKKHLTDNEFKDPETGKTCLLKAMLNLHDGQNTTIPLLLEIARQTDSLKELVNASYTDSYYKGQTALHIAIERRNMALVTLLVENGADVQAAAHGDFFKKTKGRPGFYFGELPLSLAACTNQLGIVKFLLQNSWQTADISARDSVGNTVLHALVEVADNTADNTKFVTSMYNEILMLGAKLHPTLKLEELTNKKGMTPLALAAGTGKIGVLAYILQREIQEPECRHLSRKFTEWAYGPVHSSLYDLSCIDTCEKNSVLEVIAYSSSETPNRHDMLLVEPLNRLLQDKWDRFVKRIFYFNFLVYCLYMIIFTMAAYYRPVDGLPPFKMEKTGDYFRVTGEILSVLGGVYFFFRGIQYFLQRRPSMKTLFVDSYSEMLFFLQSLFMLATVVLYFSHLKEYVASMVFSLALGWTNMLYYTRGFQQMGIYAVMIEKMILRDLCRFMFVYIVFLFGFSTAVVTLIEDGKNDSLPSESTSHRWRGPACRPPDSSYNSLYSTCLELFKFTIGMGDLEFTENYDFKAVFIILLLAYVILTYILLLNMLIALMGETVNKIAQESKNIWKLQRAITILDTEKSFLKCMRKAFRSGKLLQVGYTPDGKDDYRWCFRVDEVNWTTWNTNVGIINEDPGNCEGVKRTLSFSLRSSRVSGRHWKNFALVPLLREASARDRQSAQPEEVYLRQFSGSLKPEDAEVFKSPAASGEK

[6] = system: mechanical pain; test: von-Frey test, acute mechanical pain reactions; format: in vivo, mice; conditions: 3 wt % eugenol
Description: However, effects of blocking pain by blocking Na ion channels are induced by blocking all the dermal sensory information and thus are non-specific phenomena. Therefore, von-Frey test was conducted to examine whether antipruritic effects are induced by reduced excitation via blocking voltage-dependent Na ion channels of sensory nerves by confirming whether eugenol at a pruritus-effective concentration blocks pain reactions. With reference to Chaplan et al. (1994), hind paws of experimental animals were stimulated with von-Frey filaments (0.02 g to 4 g), and 50% avoidance reactions were measured. Through this process, avoidance reactions to mechanical stimulations were measured and assessed as a reaction threshold.

[7] = system: heat pain (capsaicin receptors); test: Hargreaves test, acute heat pain reactions; format: in vivo, mice; conditions: 3 wt % eugenol compared to the base cream
Description: In order to examine whether 3 wt % eugenol acts on capsaicin receptors and effects behavioral reactions to heat stimulation, Hargreaves test was conducted. With reference to Hargreaves et al. (1988), heat stimulation by light was delivered to a hind paw of a subject, and the corresponding avoidance reaction time was measured.

[8] = system: serotonin-induced pruritus; test: Scratch test, serotonin-induced pruritus, cream applied; format: in vivo, mice; conditions: serotonin 10 μg
Excerpt: as §1

Row | Compound | reduction of pruritus reactions ([1]; 3 wt % eugenol cream, 30 minutes) | blocking effects on histamine-dependent pruritus ([1]; 10 wt % eugenol cream) | solubility in organic solvents [2] | solubility in water [2] | number of scratching on average [3] | dermal recovery from atopic dermatitis (visual inspection) [4] | concentration at which TRPV1 is activated [5] | mechanical pain, 50% avoidance reaction threshold (von-Frey) [6] | avoidance reaction in response to heat pain (Hargreaves) [7] | antipruritic effects on serotonin-induced pruritus ([8]; 100 μL of 3 wt % eugenol) | antipruritic effects on serotonin-induced pruritus ([8]; 100 μL of 10 wt % eugenol)
1 | C=CCc1ccc(O)c(OC)c1 [eugenol, 4-allyl-2-methoxyphenol] | at least 40% | increased blocking effects on histamine-dependent pruritus | high | low | about 45 times | recovered skin to the normal level | ≥ 1 mM | did not show a significant difference | significantly increased avoidance reaction | antipruritic effects were not observed | showed blocking of serotonin-induced pruritus
2 | C=CCc1ccc(OC)c(OC)c1 [methyleugenol] |  |  |  |  | 99 times |  |  |  |  |  | 
3 | CC=Cc1ccc(O)c(OC)c1 (racemic) [isoeugenol, (E) or (Z)-2-methoxy-4-(prop-1-enyl)phenol] |  |  |  |  | about 80 times |  |  |  |  |  | 

— patent US20160256421A1, “COMPOSITION CONTAINING EUGENOL AS ACTIVE INGREDIENT FOR PREVENTING OR TREATING ATOPIC DERMATITIS” (SEOUL NATIONAL UNIVERSITY R&DB FOUNDATION, priority 2013, published 2016)
